In patent US20230123334A1, “AMINO LIPID COMPOUND, PREPARATION METHOD THEREFOR, AND APPLICATION THEREOF” (SHENZHEN SHENXIN BIOTECHNOLOGY CO., LTD., priority 2020, published 2023):

How the values were obtained:
HEK293 cells [1] = assay: Preliminary screening as mRNA vectors, EGFP mRNA transfection of HEK293 cells; type: cell-based; settings: HEK293 cells, 96-well plates, EGFP mRNA 50 ng per well; percentage of GFP fluorescent cells relative to total number of cells (Hoechst)
Procedure, shortened: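 Each well of HEK293 cells received 50 ng of EGFP mRNA. Efficiency was expressed as percent GFP-expressing cells over Hoechst-defined total cell number.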

HEK293 cells [2] = assay: Preliminary screening as DNA vectors, GFP transfection of HEK293 cells; type: cell-based; settings: HEK293 cells; lipid/DOPE liposome with 75 ng plasmid DNA (psin-EGFP-IRES-Puro); number of cells expressing GFP divided by total number of nuclei (Hoechst)
Procedure, shortened: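 Lipid + DOPE liposomes (NaOAc, pH 5.6) complexed w/ 75 ng psin-EGFP-IRES-Puro, 30 min RT; added to 3-5×10^4 HEK293/well, 37° C. Hoechst 0.2 μg/mL at 20-24 h, imaged after further 20-24 h. Efficiency = GFP+ cells / total nuclei.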

| Structure (SMILES) | Absolute mRNA transfection efficiency in HEK293 cells (HEK293 cells [1]) [%] | Absolute DNA transfection efficiency in HEK293 cells (HEK293 cells [2]) [%] |
| --- | --- | --- |
| CCCCCCCCCCCCCCCCCCSc1nc(NCCCN2CCN(C)CC2)nc(SCCCCCCCCCCCCCCCC)n1 [Compound S16S18D9] | 0.5 | 0.4 |
| CCCCCCCCCCCCCCCCCCSc1nc(NCC2CCN(C)CC2)nc(SCCCCCCCCCCCCCCCC)n1 [Compound S16S18D10] | 3.0 | 0.8 |
| CCCCCCCCCCCCCCCCCCSc1nc(NCCN(C)C)nc(SCCCCCCCCCCCCCCCCCC)n1 [Compound S18S18D1] | 0.0 | 0.0 |
| CCCCCCCCCCCCCCCCCCSc1nc(NCCN2CCOCC2)nc(SCCCCCCCCCCCCCCCCCC)n1 [Compound S18S18D2] | 0.1 | 0.0 |
| CCCCCCCCCCCCCCCCCCSc1nc(NCCN2CCCC2)nc(SCCCCCCCCCCCCCCCCCC)n1 [Compound S18S18D3] | 0.1 | 0.1 |
| CCCCCCCCCCCCCCCCCCSc1nc(NCCN2CCCCC2)nc(SCCCCCCCCCCCCCCCCCC)n1 [Compound S18S18D4] | 0.1 | 0.1 |
| CCCCCCCCCCCCCCCCCCSc1nc(NCCN2CCN(C)CC2)nc(SCCCCCCCCCCCCCCCCCC)n1 [Compound S18S18D5] | 0.1 | 0.1 |
| CCCCCCCCCCCCCCCCCCSc1nc(NCCCN(C)C)nc(SCCCCCCCCCCCCCCCCCC)n1 [Compound S18S18D6] | 0.5 | 0.2 |
| CCCCCCCCCCCCCCCCCCSc1nc(NCCN(CC)CC)nc(SCCCCCCCCCCCCCCCCCC)n1 [Compound S18S18D7] | 0.0 | 0.2 |
| CCCCCCCCCCCCCCCCCCSc1nc(NCCCN2CCOCC2)nc(SCCCCCCCCCCCCCCCCCC)n1 [Compound S18S18D8] | 0.0 | 0.0 |
| CCCCCCCCCCCCCCCCCCSc1nc(NCCCN2CCN(C)CC2)nc(SCCCCCCCCCCCCCCCCCC)n1 [Compound S18S18D9] | 0.1 | 0.9 |
| CCCCCCCCCCCCCCCCCCSc1nc(NCC2CCN(C)CC2)nc(SCCCCCCCCCCCCCCCCCC)n1 [Compound S18S18D10] | 0.0 | 0.0 |
| CCCCCCCCCCCCN(CCCCCCCCCCCC)c1nc(NCCCCCC)nc(NCCN(C)C)n1 [N6^2N12D1] | 0.0 | 0.6 |
| CCCCCCCCCCCCN(CCCCCCCCCCCC)c1nc(NCCCCCC)nc(NCCN2CCOCC2)n1 [N6^2N12D2] | 0.0 | 0.2 |
| CCCCCCCCCCCCN(CCCCCCCCCCCC)c1nc(NCCCCCC)nc(NCCN2CCCC2)n1 [N6^2N12D3] | 0.1 | 0.4 |
| CCCCCCCCCCCCN(CCCCCCCCCCCC)c1nc(NCCCCCC)nc(NCCN2CCCCC2)n1 [N6^2N12D4] | 0.0 | 0.2 |
| CCCCCCCCCCCCN(CCCCCCCCCCCC)c1nc(NCCCCCC)nc(NCCN2CCN(C)CC2)n1 [N6^2N12D5] | 0.0 | 0.2 |
| CCCCCCCCCCCCN(CCCCCCCCCCCC)c1nc(NCCCCCC)nc(NCCCN(C)C)n1 [N6^2N12D6] | 0.1 | 0.4 |
| CCCCCCCCCCCCN(CCCCCCCCCCCC)c1nc(NCCCCCC)nc(NCCN(CC)CC)n1 [N6^2N12D7] | 0.3 | 0.1 |
| CCCCCCCCCCCCN(CCCCCCCCCCCC)c1nc(NCCCCCC)nc(NCCCN2CCOCC2)n1 [N6^2N12D8] | 0.0 | 0.0 |
| CCCCCCCCCCCCN(CCCCCCCCCCCC)c1nc(NCCCCCC)nc(NCCCN2CCN(C)CC2)n1 [N6^2N12D9] | 0.0 | 0.0 |
| CCCCCCCCCCCCN(CCCCCCCCCCCC)c1nc(NCCCCCC)nc(NCC2CCN(C)CC2)n1 [N6^2N12D10] | 0.0 | 0.4 |
| CCCCCCCCCCCCN(CCCCCCCCCCCC)c1nc(NCCCCCCC)nc(NCCN(C)C)n1 [N7^2N12D1] | 3.5 | 3.6 |
